Assay results taken from patent EP4656640A1, “IRAK4 DEGRADER AND USE THEREOF” (Shanghai Qilu Pharmaceutical Research and Development …, priority 2023, dated 2024).

Assay: Mouse pharmacokinetics, oral (Experiment 1)
Type: in vivo, C57BL/6 mice
Details: mice, PO 100 mg/kg, fasted overnight, plasma
Method: C57BL/6 mice were used as test animals to study the pharmacokinetic behavior of the compounds of the present disclosure in mouse plasma after oral administration at a dose of 100 mg/kg.
C57BL/6, male, transferred from the animal repository of the laboratory institution (999M-018).
Three male C57BL/6 mice were fasted overnight (10-14 hours) with free access to water one day before administration. The mice were fed 4 hours after administration. The dose for PO administration was 100 mg/kg, with an administration volume of 20 mL/kg.
After administration, blood samples (0.03 mL) were collected from the mice via venipuncture at 0.083, 0.25, 0.5, 1, 2, 4, 8, and 24 hours. The samples were placed in EDTA-K2 tubes and centrifuged at 6800 rpm for 5 minutes at 2-8°C. The plasma was separated and stored at -80°C.
• 1) 10 µL of plasma sample was added to 200 µL of methanol for precipitation. After mixing, the mixture was centrifuged at 18000 g for 10 minutes. • 2) The processed supernatant solution was taken for LC/MS/MS analysis to determine the concentration of the test compound.
• Liquid phase conditions: Shimadzu LC-30AD pump • Mass spectrometry conditions: AB Sciex API 5500 mass spectrometer • Chromatographic column: Phenomenex Kinetex 2.6 µm C18 50 3.0 mm • Mobile phase: Solution A was 0.1% formic acid in water, and solution B was 0.1% formic acid in acetonitrile • Flow rate: 0.6 mL/min • Elution time: Gradient elution for 0-1.6 minutes.
The main pharmacokinetic parameters were calculated using WinNonlin 8.0.

## Cn1c(=O)n(C2CCC(=O)NC2=O)c2cccc(C#CCCN3CCC4(CC3)CC(n3cc(NC(=O)c5cnn6ccc(N7C[C@H]8C[C@@H]7CO8)nc56)c(C(F)F)n3)C4)c21 (stereo partly drawn) [Example 22]
  AUC(0-inf): 18400 ng·h/mL
  AUC(0-t) at 24 h: 17600 ng·h/mL
  Cmax: 1400 ng/mL
  MRT inf: 8 h
  Tmax: 1.7 h
  half-life: 5.4 h
